Measurements: patent publication EP0358152A1, “Diazine-substituted 1-adamantanes, process for their preparation, and their use as medicaments” (priority 1988, dated 1990)
“And” between values parts separate entries of the source, which are not always exact repeats. Identical values can stand only once.

What was measured:
[1] = test system: Subtyp H3N2 A/Philippines 2/82; type: cell-based, Influenzaviren Typ A
[2] = test system: Subtyp H2N2 A/Singapore 1/57; type: cell-based, Influenzaviren Typ A
[3] = test system: Subtyp H1N1 A/Brasil 11/78; type: cell-based, Influenzaviren Typ A
Typ B B/Singapore 222/79 = type: cell-based, Influenzaviren Typ B
[4] = test system: Subtyp H3N2 A/Hongkong 1/68; type: cell-based, Influenzaviren Typ A
A/Krasnodar 101/59 = type: cell-based, Influenzaviren Typ A
Influenzaviren vom Typ B = experiment: Inhibitory effect on influenza viruses of type B; type: cell-based; settings: statement in words
[5] = test system: Influenzavirus Typ A Subtyp H1N1 A/Taiwan 1/86; type: cell-based

SMILES: c1cnc(C23CC4CC(CC(C4)C2)C3)cn1 [2-(Adamant-1-yl)-pyrazin, 2-(Adamant-1-yl-)-pyrazin]
- ID50 mit Wirkstoff (log 10) [1]: 5,5 log 10
- Titerdifferenz (log 10) [1]: 0,33 log 10 and 0,83 log 10
- Titerdifferenz (log 10) [2]: 1,51 log 10 and 1,33 log 10 and 1,17 log 10

SMILES: Nc1nccc(C23CC4CC(CC(C4)C2)C3)n1 [4-(Adamant-1-yl)-2-amino-pyrimidin, 4-(Adamant-1-yl)-2-aminopyrimidin]
- Titerdifferenz (log 10) [3]: 2,8 log 10 and 2,0 log 10
- Titerdifferenz (log 10) [2]: 1,55 log 10 and 1,67 log 10

SMILES: c1cc(C23CC4CC(CC(C4)C2)C3)ncn1 [4-(Adamant-1-yl)-pyrimidin]
- ID50 mit Wirkstoff (log 10) [1]: 5,17 log 10
- Titerdifferenz (log 10) [2]: 1,33 log 10 and 1,5 log 10 and 1,34 log 10

SMILES: Cc1cncc(C23CC4CC(CC(C4)C2)C3)n1 [6-(Adamant-1-yl)-2-methyl-pyrazin, 6-(Adamant-1-yl)-2-methylpyrazin]
- ID50 mit Wirkstoff (log 10) [3]: 3,33 log 10 and 3,67 log 10
- Titerdifferenz (log 10) [3]: 1,97 log 10 and 1,66 log 10

SMILES: Cc1cc(C23CC4CC(CC(C4)C2)C3)ncn1 [6-(Adamant-1-yl)-4-methyl-pyrimidin, 6-(Adamant-1-yl)-4-methylpyrimidin]
- ID50 mit Wirkstoff (log 10) (Typ B B/Singapore 222/79): 5,67 log 10
- Titerdifferenz (log 10) (Typ B B/Singapore 222/79): 0,66 log 10 and 0,5 log 10
- ID50 mit Wirkstoff (log 10) [1]: 5,0 log 10 and 5,67 log 10
- ID50 mit Wirkstoff (log 10) [4]: 3,83 log 10
- Titerdifferenz (log 10) [4]: 0,92 log 10
- ID50 mit Wirkstoff (log 10) [3]: 3,83 log 10 and 3,33 log 10 and 3,0 log 10
- ID50 mit Wirkstoff (log 10) (A/Krasnodar 101/59): 2,5 log 10
- Titerdifferenz (log 10) (A/Krasnodar 101/59): 2,5 log 10

SMILES: CC(N)C12CC3CC(CC(C3)C1)C2.Cl (stereo not drawn) [Rimantadin, α-Methyl-1-adamantanmethylaminhydrochlorid]
- Hemmwirkung gegenüber Influenzaviren vom Typ B (Influenzaviren vom Typ B): nicht spezifisch wirksam
- Titerreduktion (log 10) [5]: 1,5 log 10 and 1,84 log 10
- Titerreduktion (log 10) [1]: 0,17 log 10
- ID₅₀ (log 10) mit Wirkstoff [2]: 2,5 log 10
